ChEMBL document CHEMBL4145553, “Design, synthesis, and biological evaluation of novel amide and hydrazide based thioether analogs targeting Histone deacteylase (HDAC) enzymes” (Eur J Med Chem, 2018)

Key:
NCI-H23 = test: Growth inhibition of human NCI-H23 cells at 10 uM incubated for 48 hrs by sulforhodamine B assay relative to control; type: functional; settings: NCI-H23, 48 h, values are per cent of control
NCI-H322M = test: Growth inhibition of human NCI-H322M cells at 10 uM incubated for 48 hrs by sulforhodamine B assay relative to control; type: functional; settings: values are per cent of control
NCI-H460 = test: Growth inhibition of human NCI-H460 cells at 10 uM incubated for 48 hrs by sulforhodamine B assay relative to control; type: functional; settings: NCI-H460, 48 h, values are per cent of control
TK-10 = test: Growth inhibition of human TK10 cells at 10 uM incubated for 48 hrs by sulforhodamine B assay relative to control; type: functional; settings: TK-10, 48 h, values are per cent of control
RXF 393 = test: Growth inhibition of human RXF393 cells at 10 uM incubated for 48 hrs by sulforhodamine B assay relative to control; type: functional; settings: RXF 393, 48 h, values are per cent of control
CAKI-1 = test: Growth inhibition of human Caki1 cells at 10 uM incubated for 48 hrs by sulforhodamine B assay relative to control; type: functional; settings: CAKI-1, 48 h, values are per cent of control
ACHN = test: Growth inhibition of human ACHN cells at 10 uM incubated for 48 hrs by sulforhodamine B assay relative to control; type: functional; settings: values are per cent of control
A498 = test: Growth inhibition of human A498 cells at 10 uM incubated for 48 hrs by sulforhodamine B assay relative to control; type: functional; settings: A498, 48 h, values are per cent of control
UO-31 = test: Growth inhibition of human UO31 cells at 10 uM incubated for 48 hrs by sulforhodamine B assay relative to control; type: functional; settings: UO-31, 48 h, values are per cent of control
PC-3 = test: Growth inhibition of human PC3 cells at 10 uM incubated for 48 hrs by sulforhodamine B assay relative to control; type: functional; settings: PC-3, 48 h, values are per cent of control
MCF7 = test: Growth inhibition of human MCF7 cells at 10 uM incubated for 48 hrs by sulforhodamine B assay relative to control; type: functional; settings: MCF7, 48 h, values are per cent of control
SR = test: Growth of human SR cells at 10 uM incubated for 48 hrs by sulforhodamine B assay relative to control
KM12 = test: Growth of human KM12 cells at 10 uM incubated for 48 hrs by sulforhodamine B assay relative to control; settings: KM12, 48 h
SNB-75 = test: Growth of human SNB75 cells at 10 uM incubated for 48 hrs by sulforhodamine B assay relative to control; settings: SNB-75, 48 h
SNB-19 = test: Growth of human SNB19 cells at 10 uM incubated for 48 hrs by sulforhodamine B assay relative to control; settings: SNB-19, 48 h
SF-539 = test: Growth of human SF539 cells at 10 uM incubated for 48 hrs by sulforhodamine B assay relative to control; settings: SF-539, 48 h
SF-295 = test: Growth of human SF295 cells at 10 uM incubated for 48 hrs by sulforhodamine B assay relative to control; settings: SF-295, 48 h
SF-268 = test: Growth of human SF268 cells at 10 uM incubated for 48 hrs by sulforhodamine B assay relative to control; settings: SF-268, 48 h
SW-620 = test: Growth of human SW620 cells at 10 uM incubated for 48 hrs by sulforhodamine B assay relative to control; settings: SW-620, 48 h
HCT-15 = test: Growth of human HCT15 cells at 10 uM incubated for 48 hrs by sulforhodamine B assay relative to control; settings: HCT-15, 48 h
HOP-62 = test: Growth of human HOP62 cells at 10 uM incubated for 48 hrs by sulforhodamine B assay relative to control; settings: HOP-62, 48 h
OVCAR-8 = test: Growth of human OVCAR8 cells at 10 uM incubated for 48 hrs by sulforhodamine B assay relative to control; settings: OVCAR-8, 48 h
IGROV-1 = test: Growth of human IGROV1 cells at 10 uM incubated for 48 hrs by sulforhodamine B assay relative to control; settings: IGROV-1, 48 h
UACC-62 = test: Growth of human UACC62 cells at 10 uM incubated for 48 hrs by sulforhodamine B assay relative to control; settings: UACC-62, 48 h
HCT-116 = test: Growth of human HCT116 cells at 10 uM incubated for 48 hrs by sulforhodamine B assay relative to control; settings: HCT-116, 48 h
LOX IMVI = test: Growth of human LOXIMVI cells at 10 uM incubated for 48 hrs by sulforhodamine B assay relative to control
HCC 2998 = test: Growth of human HCC2998 cells at 10 uM incubated for 48 hrs by sulforhodamine B assay relative to control; settings: HCC 2998, 48 h
COLO 205 = test: Growth of human COLO205 cells at 10 uM incubated for 48 hrs by sulforhodamine B assay relative to control; settings: COLO 205, 48 h
Malme-3M = test: Growth of human MALME-3M cells at 10 uM incubated for 48 hrs by sulforhodamine B assay relative to control
CCRF-CEM = test: Growth of human CCRF-CEM cells at 10 uM incubated for 48 hrs by sulforhodamine B assay relative to control
SK-MEL-28 = test: Growth of human SK-MEL-28 cells at 10 uM incubated for 48 hrs by sulforhodamine B assay relative to control; settings: SK-MEL-28, 48 h
A549 = test: Growth of human A549/ATCC cells at 10 uM incubated for 48 hrs by sulforhodamine B assay relative to control; settings: A549, 48 h
MDA-MB-435 = test: Growth of human MDA-MB-435 cells at 10 uM incubated for 48 hrs by sulforhodamine B assay relative to control; settings: MDA-MB-435, 48 h

SMILES	growth, % of control at 10 µM (NCI-H23)	growth, % of control at 10 µM (NCI-H322M)	growth, % of control at 10 µM (NCI-H460)	growth, % of control at 10 µM (TK-10)	growth, % of control at 10 µM (RXF 393)	growth, % of control at 10 µM (CAKI-1)	growth, % of control at 10 µM (ACHN)	growth, % of control at 10 µM (A498)	growth, % of control at 10 µM (UO-31)	growth, % of control at 10 µM (PC-3)	growth, % of control at 10 µM (MCF7)	growth, % of control at 10 µM (SR)	growth, % of control at 10 µM (KM12)	growth, % of control at 10 µM (SNB-75)	growth, % of control at 10 µM (SNB-19)	growth, % of control at 10 µM (SF-539)	growth, % of control at 10 µM (SF-295)	growth, % of control at 10 µM (SF-268)	growth, % of control at 10 µM (SW-620)	growth, % of control at 10 µM (HCT-15)	further results
CCS/C(Nc1ccccc1)=C(\C#N)C(=O)N/N=C\c1ccco1	96.5%	101%	110%	103%	104%	95.9%	105%	77.3%	86.8%	99.4%	66.8%	85.1%	104%	89.1%	101%	98.7%	101%	98%	103%	106%	growth, % of control at 10 µM (HOP-62): 97.4%; growth, % of control at 10 µM (OVCAR-8): 92.1%; growth, % of control at 10 µM (IGROV-1): 105%; growth, % of control at 10 µM (UACC-62): 97.7%; growth, % of control at 10 µM (HCT-116): 95.5%; growth, % of control at 10 µM (LOX IMVI): 109%; growth, % of control at 10 µM (HCC 2998): 107%; growth, % of control at 10 µM (COLO 205): 103%; growth, % of control at 10 µM (Malme-3M): 95.9%; growth, % of control at 10 µM (CCRF-CEM): 91.2%; growth, % of control at 10 µM (SK-MEL-28): 109%; growth, % of control at 10 µM (A549): 86.7%; growth, % of control at 10 µM (MDA-MB-435): 105%
CC(C)(C)S/C(Nc1ccccc1)=C(\C#N)C(=O)N/N=C\c1ccc(Cl)cc1Cl	92.5%	99.8%	101%	99.1%	103%	98.4%	105%	101%	82.7%	96.3%	92.7%	70%	102%	102%	97.5%	98%	97.9%	99.7%	105%	102%	growth, % of control at 10 µM (HOP-62): 98.1%; growth, % of control at 10 µM (OVCAR-8): 97.3%; growth, % of control at 10 µM (IGROV-1): 98.7%; growth, % of control at 10 µM (UACC-62): 89.9%; growth, % of control at 10 µM (HCT-116): 88%; growth, % of control at 10 µM (LOX IMVI): 101%; growth, % of control at 10 µM (HCC 2998): 98.6%; growth, % of control at 10 µM (COLO 205): 112%; growth, % of control at 10 µM (Malme-3M): 94.2%; growth, % of control at 10 µM (CCRF-CEM): 88.3%; growth, % of control at 10 µM (SK-MEL-28): 108%; growth, % of control at 10 µM (A549): 98.1%; growth, % of control at 10 µM (MDA-MB-435): 104%
CCS/C(Nc1ccccc1)=C(\C#N)C(=O)Nc1ccc(OC)cc1	48.3%	51.6%	10.1%	47.6%	39.5%	40.4%	51.9%	22.7%	50%	47.9%	19%	6.62%	31%	18.2%	23.1%	29.1%	32.6%	39.1%	17.9%	16.9%	growth, % of control at 10 µM (HOP-62): 34.2%; growth, % of control at 10 µM (OVCAR-8): 31.2%; growth, % of control at 10 µM (IGROV-1): 55.7%; growth, % of control at 10 µM (UACC-62): 27.2%; growth, % of control at 10 µM (HCT-116): 14.3%; growth, % of control at 10 µM (LOX IMVI): 36.6%; growth, % of control at 10 µM (HCC 2998): 55.2%; growth, % of control at 10 µM (COLO 205): 17.5%; growth, % of control at 10 µM (Malme-3M): 55.5%; growth, % of control at 10 µM (CCRF-CEM): 8.29%; growth, % of control at 10 µM (SK-MEL-28): 58.9%; growth, % of control at 10 µM (A549): 34.6%; growth, % of control at 10 µM (MDA-MB-435): -47.9%
